This note sets out measurements from patent publication US6534524B1, “Indazole compounds and pharmaceutical compositions for inhibiting protein kinases, and methods for their use” (Agouron Pharmaceuticals, Inc., priority 1999, dated 2003).

One data set deals with T1, human CHK1 (FL-CHK1) (Homo sapiens, UniProt O14757).
T1 construct: C-terminally His-tagged full-length human CHK1 (FL-CHK1); made in house; host or cells: baculovirus/insect cell system
T1 sequence (O14757 1-476): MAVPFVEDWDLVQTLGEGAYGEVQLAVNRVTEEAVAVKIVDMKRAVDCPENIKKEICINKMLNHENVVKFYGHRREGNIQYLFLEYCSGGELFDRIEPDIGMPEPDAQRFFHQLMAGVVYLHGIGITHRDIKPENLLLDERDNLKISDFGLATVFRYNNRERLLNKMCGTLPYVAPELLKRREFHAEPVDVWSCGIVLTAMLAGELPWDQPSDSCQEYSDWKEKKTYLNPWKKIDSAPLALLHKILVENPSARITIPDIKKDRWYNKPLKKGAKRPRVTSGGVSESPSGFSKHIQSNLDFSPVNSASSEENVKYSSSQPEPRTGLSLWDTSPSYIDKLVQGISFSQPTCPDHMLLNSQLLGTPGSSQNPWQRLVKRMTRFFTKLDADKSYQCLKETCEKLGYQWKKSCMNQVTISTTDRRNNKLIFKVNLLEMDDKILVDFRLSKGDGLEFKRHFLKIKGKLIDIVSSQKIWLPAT
Kind of data set: CHK1 assay (coupled spectrophotometric, Syntide-2). Format: biochemical. The note with it: for CHK-1 @ 20 μM: Table 4, compound at 20 μM; for pKi: read-out: CHK-1 Ki. From the text:
CHK1 Construct for Assay: C-terminally His-tagged full-length human CHK1 (FL-CHK1) was expressed using the baculovirus/insect cell system. […] The protein was purified by conventional chromatographic techniques.
The production of ADP from ATP that accompanies phosphoryl transfer to the synthetic substrate peptide Syntide-2 ([…]) was coupled to oxidation of NADH using phosphoenolpyruvate (PEP) through the actions of pyruvate kinase (PK) and lactic dehydrogenase (LDH). The oxidation of NADH was monitored by following the decrease of absorbance at 340 nm (ε340=6.22 cm^−1 mM^−1) using a HP8452 spectrophotometer. […] Assays were initiated with 10 nM of FL-CHK1. Ki values were determined by measuring initial enzyme activity in the presence of varying concentrations of test compounds. The data were analyzed using Enzyme Kinetic and Kaleidagraph software.

A short description of data set [1]: Human liver microsome (HLM) assay. Format: in vitro ADME. The conditions noted are these: human liver microsomes, 5 μM test compound. In outline: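 LC-MS quantified test compound remaining after 0 and 2 h incubation with human liver microsomes. Triplicate samples, clarified by 10 min centrifugation at 14000 g.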
Data set [2] in a line: Determination of inhibitor concentration in mouse plasma after intraperitoneal and oral dosing. It is filed as in vivo. In a few lines: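 Plasma levels quantified by HPLC or LC-MS using a standard curve prepared in mouse plasma, following ethyl acetate extraction with internal standard and sodium hydroxide. Sampling at 0.5, 1, 4 h (ocular bleed) and 7 h (cardiac puncture) after oral or intraperitoneal dosing.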

For data set [3], the target named is unphosphorylated VEGF-R2Δ50 (FLVK) (Homo sapiens, UniProt P35968, DEL940-989/E990V). As to the kind of experiment: VEGF-R2 coupled spectrophotometric assay, unphosphorylated VEGF-R2Δ50 (FLVK). The note with it: FLVK Ki, Table 1.
Setting [4] is: IP, 25 mg/kg, vehicle PEG400:H2O pH 2.3 30:70.
[5] abbreviates: PO, 50 mg/kg, vehicle PEG400:H2O pH 2.3 30:70.
Where [6] appears, read: female, IP, 25 mg/kg, vehicle PEG400:H2O pH 2.3 30:70, read-out: Cmin (7 hr conc.).
[7] abbreviates: female, PO, 50 mg/kg, vehicle PEG400:H2O pH 2.3 30:70, read-out: Cmin (7 hr conc.).
[8] abbreviates: female, IP, 25 mg/kg, vehicle PEG400:H2O pH 2.3 30:70.
[9] abbreviates: IP, 25 mg/kg, vehicle PEG400:H2O pH 2.3 60:40.
Where [10] appears, read: PO, 50 mg/kg, vehicle PEG400:H2O pH 2.3 60:40.
Where [11] appears, read: female, IP, 25 mg/kg, vehicle PEG400:H2O pH 2.3 60:40, read-out: Cmin (7 hr conc.).
Where [12] appears, read: female, PO, 50 mg/kg, vehicle PEG400:H2O pH 2.3 60:40, read-out: Cmin (7 hr conc.).

pKi: −log10 of the molar value. Like-named read-outs stand apart in the source and are kept apart here. A value given as a limit tells only on which side of the number the result lay.

Chain of unphosphorylated VEGF-R2Δ50 (FLVK) (P35968 with tags, fused parts or gaps DEL940-989/E990V limits assumed): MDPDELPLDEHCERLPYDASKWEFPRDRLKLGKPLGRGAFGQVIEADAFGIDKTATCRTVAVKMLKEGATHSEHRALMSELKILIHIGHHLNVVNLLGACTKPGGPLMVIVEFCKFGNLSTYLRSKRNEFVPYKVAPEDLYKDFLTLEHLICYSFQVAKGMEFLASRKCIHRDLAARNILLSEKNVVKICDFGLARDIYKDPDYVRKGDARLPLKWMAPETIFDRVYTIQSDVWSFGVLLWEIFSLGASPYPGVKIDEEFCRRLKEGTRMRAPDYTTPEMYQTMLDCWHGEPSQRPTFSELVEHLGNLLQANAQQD

Consider `O=C(Nc1cc[nH]n1)c1ccc2c(-c3nc4ccccc4[nH]3)n[nH]c2c1`, for which the “CHK-1 @ 20 μM” value on human CHK1 (FL-CHK1) amounted to 52.4.
`O=C(Nc1cc(O)[nH]n1)c1ccc2c(-c3nc4ccccc4[nH]3)n[nH]c2c1`: the “CHK-1 @ 20 μM” value on human CHK1 (FL-CHK1) stood at 38.6.
Turning to `Cc1nc(/C=C/c2n[nH]c3cc(-c4ccncc4)ccc23)cs1` [29(j), 6-Pyrid-4-yl-3-E-[2-(2-methylthiazol-4-yl)ethenyl]-1H-indazole], the pKi at human CHK1 (FL-CHK1) (Table 3) is 6.27.
For `O=C(c1ccccc1)c1ccc2c(/C=C/c3ccccc3)n[nH]c2c1` [Example 17, Phenyl-(3-styryl-1H-indazol-6-yl)-methanone], on human CHK1 (FL-CHK1) (Table 1), the pKi is 6.27.
As for `C(=C\c1n[nH]c2cc(-c3cccc4[nH]ccc34)ccc12)/c1ccccc1` [Example 27(g), 6-Indol-4-yl-3-E-styryl-1H-indazole], the pKi on human CHK1 (FL-CHK1) (Table 3) was 6.07.
Still for that read-out and setting: under `COc1ccc(-c2ccc3c(/C=C/c4ccccc4)n[nH]c3c2)cn1` [Example 27(k), 6-(2-Methoxypyridin-5-yl)-3-E-styryl-1H-indazole] stands 4.62.
Still for that read-out and setting: to `Oc1ccc(-c2ccc3c(/C=C/c4ccccc4)n[nH]c3c2)cc1` [Example 28(b)] belongs 7.84; to `Oc1ccc(-c2ccc3c(/C=C/c4ccccc4)n[nH]c3c2)cc1O` [Example 28(d), 6-(3,4-Dihydroxyphenyl)-3-E-styryl-1H-indazole], 7.74.
The same measure, in the same setting: to `C(=C\c1n[nH]c2cc(-c3ccncc3)ccc12)/c1ccc(-c2ccccc2)cc1` [Example 29(d), 6-Pyrid-4-yl-3-E-[2-(biphenyl-4-yl)ethenyl]-1H-indazole] belongs 5.00.
For `C(=C\c1n[nH]c2cc(-c3ccncc3)ccc12)/c1ccc2ccccc2c1` [Example 29(k), 6-Pyrid-4-yl-3-E-[2-(naphthalen-2-yl)ethenyl]-1H-indazole], the pKi on human CHK1 (FL-CHK1) (Table 3) was 5.89.
Regarding `Fc1cc(F)cc(/C=C/c2n[nH]c3cc(-c4ccncc4)ccc23)c1` [Example 29(m), 6-Pyrid-4-yl-3-E-[2-(3,5-difluorophenyl)ethenyl]-1H-indazole], the pKi at human CHK1 (FL-CHK1) (Table 3) is 6.00.
Regarding `C(=C\c1n[nH]c2cc(-c3ccncc3)ccc12)/c1cccc(-c2ccccc2)c1` [Example 29(n), 6-Pyrid-4-yl-3-E-[2-(biphenyl-3-yl)ethenyl]-1H-indazole], the pKi on human CHK1 (FL-CHK1) (Table 3) is 4.80.
For `Fc1cccc(F)c1/C=C/c1n[nH]c2cc(-c3ccncc3)ccc12` [Example 29(o), 6-Pyrid-4-yl-3-E-[2-(2,6-difluorophenyl)ethenyl]-1H-indazole], on human CHK1 (FL-CHK1) (Table 3), the pKi was 4.34.
On the same count and under the same terms, to `C(=C\c1n[nH]c2cc(-c3ccncc3)ccc12)/c1nc2ccccc2[nH]1` [Example 29(q), 6-Pyrid-4-yl-3-E-[2-(4-benzimidazol-2-yl)ethenyl]-1H-indazole] belongs 4.96.
For `O=C(NCC(F)(F)F)c1ccccc1Sc1ccc2c(/C=C/c3ccccn3)n[nH]c2c1` [Example 33(f), 6-[2-(2,2,2-Trifluoroethylcarbamoyl)phenylsulfanyl]-3-E-[2-(pyridin-2-yl)ethenyl]-1H-indazole], in data set [1], the “% remain (HLM, 2 h)” value is 31%. Moreover, the AUClast in data set [2] (setting [4]) was 1887 ng·h/mL; in data set [2] (setting [5]) it was 1436 ng·h/mL. The entries for the “plasma half-life (T1/2)” value in data set [2] (setting [4]) and in data set [2] (setting [5]) were 2.4 h and 0.7 h, respectively. The concentration at 7 h is 6 ng/mL in data set [2] (setting [6]) and 3 ng/mL in data set [2] (setting [7]). In addition, the pKi in data set [3] is 8.10.
On to `O=C(NCc1cccc(F)c1)c1ccccc1Sc1ccc2c(/C=C/c3ccccn3)n[nH]c2c1` [Example 35(ff)], for which the “% remain (HLM, 2 h)” value in data set [1] is 31%. The compound further returned an AUC(0-t) in data set [2] (setting [8]) of over 6300 ng·h/mL. For the same compound, the Cmax in data set [2] (female, IP, 25 mg/kg, vehicle PEG400:H2O pH 2.3 30:70, read-out: Cmax) was over 4000 ng/mL. In addition, the concentration at 7 h in data set [2] (setting [6]) amounted to 72 ng/mL. Also, in data set [3], the pKi was 9.96.
As to `CC(=O)c1ccc(C(=O)Nc2cccc(C(=O)c3ccc4c(/C=C/c5ccccn5)n[nH]c4c3)c2)s1` [Example 41(e), 6-[3-((5-Acetylthien-2-yl)carboxamido)benzoyl]-3-E-[2-(pyridin-2-yl)ethenyl]-1H-indazole], the “% remain (HLM, 2 h)” value in data set [1] came out at 22%. Besides, in data set [2] (setting [9]), the AUClast was 4900 ng·h/mL, the Cmax was 1154 ng/mL and the “plasma half-life (T1/2)” value was determined as 1.6 h. In addition, in data set [2] (setting [10]), the AUClast is 302 ng·h/mL, the Cmax came to 113 ng/mL and the “plasma half-life (T1/2)” value was 1.6 h. The concentration at 7 h in data set [2] (setting [11]) is 301 ng/mL. Further, the concentration at 7 h in data set [2] (setting [12]) is 7 ng/mL. Further, the pKi in data set [3] was 9.66.
`Cc1cc(C(=O)Nc2cccc(C(=O)c3ccc4c(/C=C/c5ccccn5)n[nH]c4c3)c2)n[nH]1` [Example 41(g), 6-[3-((5-Methyl-1H-pyrazol-3-yl)carboxamido)benzoyl]-3-E-[2-(pyridin-2-yl)ethenyl]-1H-indazole]: the “% remain (HLM, 2 h)” value in data set [1] is on record as 52%. Also, the AUClast in data set [2] (setting [9]) came out at 1925 ng·h/mL; in data set [2] (setting [10]) it was 508 ng·h/mL. The “plasma half-life (T1/2)” value amounted to 0.3 h in data set [2] (setting [9]) and 0.7 h in data set [2] (setting [10]). The concentration at 7 h in data set [2] (setting [11]) stood at 0 ng/mL; in data set [2] (setting [12]), 1 ng/mL. The pKi in data set [3] was 10.00.
On to `Cc1cc(C(=O)Nc2cccc(C(=O)c3ccc4c(/C=C/c5ccccn5)n[nH]c4c3)c2)on1` [Example 41(m), 6-[3-((3-Methylisoxazol-5-yl)carboxamido)benzoyl]-3-E-[2-(pyridin-2-yl)ethenyl]-1H-indazole], for which, in data set [1], the “% remain (HLM, 2 h)” value is recorded as 0%. In data set [2] (setting [4]), the AUClast came to 1864 ng·h/mL and the “plasma half-life (T1/2)” value was 2.3 h. In data set [2] (setting [5]), the AUClast was 9 ng·h/mL, the Cmax stood at 5 ng/mL and the “plasma half-life (T1/2)” value was “blq”. For the same compound, the pKi in data set [3] was 9.12.
As for `O=C(c1cccc(NC(=O)c2ccc(Cl)s2)c1)c1ccc2c(/C=C/c3ccccn3)n[nH]c2c1` [Example 41(o), 6-[3-((5-Chlorothien-2-yl)carboxamido)benzoyl]-3-E-[2-(pyridin-2-yl)ethenyl]-1H-indazole], in data set [1], the “% remain (HLM, 2 h)” value is reported as 94%. For the same compound, in data set [2] (setting [5]), the AUClast stood at 14717 ng·h/mL and the “plasma half-life (T1/2)” value is 1.7 h. Besides, the AUC(0-t) in data set [2] (setting [8]) is over 33800 ng·h/mL. For the same compound, the concentration at 7 h in data set [2] (setting [6]) was over 5000 ng/mL. The concentration at 7 h in data set [2] (setting [7]) came out at 427 ng/mL. Further, in data set [3], the pKi was 10.30.
As for `C=CCn1nc(C)cc1C(=O)Nc1cccc(C(=O)c2ccc3c(/C=C/c4ccccn4)n[nH]c3c2)c1` [Example 41(t), 6-[3-((1-Allyl-3-methyl-1H-pyrazol-5-yl)carboxamido)benzoyl]-3-E-[2-(pyridin-2-yl)ethenyl]-1H-indazole], the “% remain (HLM, 2 h)” value in data set [1] is on record as 87%. In addition, in data set [2] (PO, 25 mg/kg, vehicle PEG400:H2O pH 2.3 30:70), the “plasma half-life (T1/2)” value stood at 4.0 h. In data set [2] (female, PO, 25 mg/kg, vehicle PEG400:H2O pH 2.3 30:70), this compound registered an AUC(0-t) of over 22500 ng·h/mL. Further, the concentration at 7 h in data set [2] (female, PO, 25 mg/kg, vehicle PEG400:H2O pH 2.3 30:70, read-out: Cmin (7 hr conc.)) turned out to be 1350 ng/mL. In addition, the pKi in data set [3] is 10.22.
Turning to `O=C(Nc1cccc(C(=O)c2ccc3c(-c4nc5ccccc5[nH]4)n[nH]c3c2)c1)c1ccccc1` [Example 42(b), 6-(3-Benzamidobenzoyl)-3-(1H-benzoimidazol-2-yl)-1H-indazole], in data set [1], the “% remain (HLM, 2 h)” value is given as 81%. Moreover, the AUClast in data set [2] (setting [9]) came out at 3207 ng·h/mL; in data set [2] (setting [10]), 4747 ng·h/mL. The “plasma half-life (T1/2)” value in data set [2] (setting [9]) and in data set [2] (setting [10]) was 3.0 h in each case. The concentration at 7 h in data set [2] (setting [11]) worked out at 211 ng/mL; in data set [2] (setting [12]) it was 46 ng/mL. This compound also gave a pKi in data set [3] of 9.46.
